# Experiments:
# Assay in all cases: biochemical
# [1] = target: AAK1 (Homo sapiens, UniProt Q2M2I8); set-up: kinase domain; Thermal shift assay (DSF, SYPRO Orange), 2 uM kinase domain, mean delta Tm of triplicates versus DMSO; details: for ΔTm at 12.5 µM: read-out: AAK1
# Procedure: (§1) All measurements were performed in triplicate and mean values were reported for all compounds (Table S1). […] However, NAKs are often omitted from selectivity panels, including commercial screens.
# [2] = target: T1, BIKE (Homo sapiens, UniProt Q9NSY1); set-up: Thermal shift assay (DSF, SYPRO Orange), 2 uM kinase domain, mean delta Tm of triplicates versus DMSO; details: read-out: BIKE
# T1 construct: gene BMP2K; catalytic domain-containing construct
# Procedure: as §1
# [3] = target: T2, MPSK1 (Homo sapiens, UniProt O75716); set-up: Thermal shift assay (DSF, SYPRO Orange), 2 uM kinase domain, mean delta Tm of triplicates versus DMSO; details: read-out: MPSK1
# T2 construct: gene STK16; catalytic domain-containing construct
# Procedure: as §1
# [4] = target: T3, GAK (Homo sapiens, UniProt O14976); set-up: Thermal shift assay (DSF, SYPRO Orange), 2 uM kinase domain, mean delta Tm of triplicates versus DMSO; details: for ΔTm at 12.5 µM: read-out: GAK
# T3 construct: catalytic domain-containing construct
# T3 sequence (O14976 1-1311): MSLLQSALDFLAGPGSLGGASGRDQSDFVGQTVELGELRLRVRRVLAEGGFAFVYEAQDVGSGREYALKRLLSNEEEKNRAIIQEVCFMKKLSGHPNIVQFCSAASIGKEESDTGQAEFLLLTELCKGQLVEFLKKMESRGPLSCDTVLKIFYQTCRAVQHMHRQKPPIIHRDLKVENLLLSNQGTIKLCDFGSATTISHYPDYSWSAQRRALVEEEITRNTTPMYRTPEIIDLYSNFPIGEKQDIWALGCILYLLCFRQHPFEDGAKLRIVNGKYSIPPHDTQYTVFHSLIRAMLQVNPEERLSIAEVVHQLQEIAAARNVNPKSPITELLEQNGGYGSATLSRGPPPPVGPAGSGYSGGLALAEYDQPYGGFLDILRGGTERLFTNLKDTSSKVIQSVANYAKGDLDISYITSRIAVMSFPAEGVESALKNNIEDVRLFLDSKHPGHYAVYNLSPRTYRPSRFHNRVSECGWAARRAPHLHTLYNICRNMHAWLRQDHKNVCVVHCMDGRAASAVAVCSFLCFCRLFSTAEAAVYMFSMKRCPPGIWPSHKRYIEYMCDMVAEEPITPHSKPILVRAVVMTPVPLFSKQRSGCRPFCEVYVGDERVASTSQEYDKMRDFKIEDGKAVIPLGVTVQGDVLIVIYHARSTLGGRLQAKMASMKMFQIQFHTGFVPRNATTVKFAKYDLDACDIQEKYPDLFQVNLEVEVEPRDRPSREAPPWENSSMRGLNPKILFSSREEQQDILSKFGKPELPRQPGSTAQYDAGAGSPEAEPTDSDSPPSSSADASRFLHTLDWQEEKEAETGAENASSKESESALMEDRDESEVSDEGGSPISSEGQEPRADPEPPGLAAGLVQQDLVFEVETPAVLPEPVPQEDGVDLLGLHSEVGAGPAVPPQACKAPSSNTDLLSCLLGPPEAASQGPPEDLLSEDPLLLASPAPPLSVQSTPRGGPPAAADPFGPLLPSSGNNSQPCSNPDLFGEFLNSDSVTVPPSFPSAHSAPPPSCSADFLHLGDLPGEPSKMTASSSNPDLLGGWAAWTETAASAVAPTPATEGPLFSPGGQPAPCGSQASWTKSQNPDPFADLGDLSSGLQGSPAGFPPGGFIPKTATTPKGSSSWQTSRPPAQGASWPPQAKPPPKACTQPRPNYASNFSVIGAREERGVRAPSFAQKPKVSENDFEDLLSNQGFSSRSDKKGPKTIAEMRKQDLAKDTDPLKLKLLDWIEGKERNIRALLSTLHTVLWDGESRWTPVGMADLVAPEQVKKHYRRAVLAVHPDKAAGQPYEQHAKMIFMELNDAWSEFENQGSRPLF
# Procedure: as §1
# T1 sequence (Q9NSY1 whole entry, the tested form may be a part): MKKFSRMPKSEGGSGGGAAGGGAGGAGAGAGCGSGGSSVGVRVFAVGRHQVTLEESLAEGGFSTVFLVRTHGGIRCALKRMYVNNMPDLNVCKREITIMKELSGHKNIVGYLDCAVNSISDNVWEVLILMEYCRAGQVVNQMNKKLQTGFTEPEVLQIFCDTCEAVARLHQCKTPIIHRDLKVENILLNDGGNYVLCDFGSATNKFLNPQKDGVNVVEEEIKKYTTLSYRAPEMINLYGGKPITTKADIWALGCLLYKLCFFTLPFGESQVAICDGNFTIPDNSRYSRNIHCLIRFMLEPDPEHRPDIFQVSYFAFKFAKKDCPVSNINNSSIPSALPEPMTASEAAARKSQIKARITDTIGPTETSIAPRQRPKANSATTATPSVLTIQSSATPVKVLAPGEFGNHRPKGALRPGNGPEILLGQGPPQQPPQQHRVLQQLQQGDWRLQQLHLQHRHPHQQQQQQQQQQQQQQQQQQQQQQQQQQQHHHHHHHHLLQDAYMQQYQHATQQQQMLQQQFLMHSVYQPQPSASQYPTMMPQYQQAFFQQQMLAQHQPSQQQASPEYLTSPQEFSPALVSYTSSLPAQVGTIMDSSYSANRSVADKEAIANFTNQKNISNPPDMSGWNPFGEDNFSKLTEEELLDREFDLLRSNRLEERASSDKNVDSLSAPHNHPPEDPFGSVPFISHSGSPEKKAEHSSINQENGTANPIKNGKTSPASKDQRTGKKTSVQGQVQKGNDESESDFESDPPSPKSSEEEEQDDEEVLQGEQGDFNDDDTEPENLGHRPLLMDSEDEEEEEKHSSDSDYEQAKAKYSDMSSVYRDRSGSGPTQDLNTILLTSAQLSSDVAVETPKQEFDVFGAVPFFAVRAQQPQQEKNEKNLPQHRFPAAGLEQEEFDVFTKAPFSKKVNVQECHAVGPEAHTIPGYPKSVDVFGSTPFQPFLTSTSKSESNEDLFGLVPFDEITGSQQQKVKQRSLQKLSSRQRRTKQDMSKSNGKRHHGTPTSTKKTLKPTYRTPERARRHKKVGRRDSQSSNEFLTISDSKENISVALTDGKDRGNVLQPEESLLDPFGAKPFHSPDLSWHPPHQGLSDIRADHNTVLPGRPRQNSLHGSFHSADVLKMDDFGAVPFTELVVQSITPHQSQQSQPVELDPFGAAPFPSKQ
# Chain of AAK1 (Q2M2I8 27-365 limits assumed): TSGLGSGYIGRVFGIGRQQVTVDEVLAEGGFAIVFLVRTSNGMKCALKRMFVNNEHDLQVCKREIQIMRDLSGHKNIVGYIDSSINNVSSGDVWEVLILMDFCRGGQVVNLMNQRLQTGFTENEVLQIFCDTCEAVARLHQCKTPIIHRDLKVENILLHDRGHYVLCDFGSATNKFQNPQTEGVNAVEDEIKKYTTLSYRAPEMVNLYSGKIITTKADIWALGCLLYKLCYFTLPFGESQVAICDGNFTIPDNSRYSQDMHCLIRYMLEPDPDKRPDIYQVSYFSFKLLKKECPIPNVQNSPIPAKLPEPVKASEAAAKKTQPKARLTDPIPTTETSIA
# T2 sequence (O75716 whole entry, the tested form may be a part): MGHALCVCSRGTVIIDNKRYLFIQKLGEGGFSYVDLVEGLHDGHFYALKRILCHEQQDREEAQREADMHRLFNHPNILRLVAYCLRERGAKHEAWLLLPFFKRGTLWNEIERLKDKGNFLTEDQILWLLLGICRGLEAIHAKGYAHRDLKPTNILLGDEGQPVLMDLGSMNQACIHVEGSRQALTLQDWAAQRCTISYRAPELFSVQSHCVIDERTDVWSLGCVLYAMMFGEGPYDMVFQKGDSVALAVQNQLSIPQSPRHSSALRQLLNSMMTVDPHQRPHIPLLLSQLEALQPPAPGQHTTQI
SMILES,ΔTm at 12.5 µM [1] [°C],ΔTm at 12.5 µM [2] [°C],ΔTm at 12.5 µM [3] [°C],ΔTm at 12.5 µM [4] [°C],AAK1 ([1]; 12.5 µM) [°C],GAK ([4]; 12.5 µM) [°C]
Cc1cccc(-c2nn3c(c2-c2ccnc4ccc(C(N)=O)cc24)CCC3)n1 [Galunisertib],0.47,0.583,0.97,3.39,–,–
CNC(=O)c1ccccc1Sc1ccc2c(/C=C/c3ccccn3)n[nH]c2c1 [Axitinib],6.85,12.4,3.09,0.75,–,–
COc1cc(Nc2ncc(F)c(Nc3ccc4c(n3)NC(=O)C(C)(C)O4)n2)cc(OC)c1OC [Tamatinib],7,6.55,14.1,3.48,–,–
Cc1[nH]c(/C=C2\C(=O)Nc3ccccc32)c(C)c1CCC(=O)O [Orantinib],6.55,12,5.87,3.99,–,–
CCN(CC)CCNC(=O)c1c(C)[nH]c(/C=C2\C(=O)Nc3ccc(F)cc32)c1C [Sunitinib],–,13.9,6.79,–,8.67,4.647
COc1cc2nccc(Oc3ccc(NC(=O)C4(C(=O)Nc5ccc(F)cc5)CC4)cc3)c2cc1OC [Cabozantinib],0.82,0.743,0.713,2.46,–,–
CCCS(=O)(=O)Nc1ccc(F)c(C(=O)c2c[nH]c3ncc(-c4ccc(Cl)cc4)cc23)c1F [Vemurafenib],2.06,4.24,5.18,2.66,–,–
C[C@]1(O)C[C@@H](c2nc(-c3ccc4ccc(-c5ccccc5)nc4c3)c3c(N)nccn32)C1 [Linsitinib],0.277,0.903,0.73,-0.6,–,–
Cc1cc(C(C)Nc2ccccc2)c2nc(N3CCOCC3)cc(=O)n2c1 (stereo not shown) [TGX-221],0.26,0.5,1.43,-0.347,–,–
CNC(=O)c1cc(Oc2ccc(NC(=O)Nc3ccc(Cl)c(C(F)(F)F)c3)cc2)ccn1 [Sorafenib],1.03,0.73,0.873,5.42,–,–
Cc1ccc([N+](=O)[O-])cc1S(=O)(=O)N(C)/N=C/c1cnc2ccc(Br)cn12 [PIK-75],5,7.9,9.97,3.07,–,–
S=C(NCc1ccc2c(c1)OCO2)N1CCN(c2ncnc3c2oc2ccccc23)CC1 [Amuvatinib],1.93,1.16,0.233,0.377,–,–
CNC(=O)c1nn(C)c2c1C(C)(C)Cc1cnc(Nc3ccc(N4CCN(C)CC4)cc3)nc1-2 [Milciclib],5.61,7.73,10.1,10.6,–,–
Cc1nc(Nc2n[nH]c3c2CN(C(=O)N[C@H](CN(C)C)c2ccccc2)C3(C)C)c2sccc2n1 [PF-03758309],5.65,10.6,8.65,4.73,–,–
Cn1c(Nc2ccc(C(F)(F)F)cc2)nc2cc(Oc3ccnc(-c4ncc(C(F)(F)F)[nH]4)c3)ccc21 [RAF265],1.45,1.07,1.67,7.37,–,–
CN(c1ccccc1CNc1nc(Nc2ccc3c(c2)CC(=O)N3)ncc1C(F)(F)F)S(C)(=O)=O [PF 431396],4.81,9.5,13.9,5.02,–,–
CC1(COc2ccc3c(c2)ncn3-c2ccc3cccc(N4CCC(N)CC4)c3n2)COC1 [Crenolanib],4.66,12,4.1,3.73,–,–

SMILES,ΔTm at 12.5 µM [1] [°C],ΔTm at 12.5 µM [2] [°C],ΔTm at 12.5 µM [3] [°C],ΔTm at 12.5 µM [4] [°C],AAK1 ([1]; 12.5 µM) [°C],GAK ([4]; 12.5 µM) [°C]
CC(=O)c1c(C)c2cnc(Nc3ccc(N4CCNCC4)cn3)nc2n(C2CCCC2)c1=O [Palbociclib],2.94,5.02,7.72,0.733,–,–
Nc1cc(C(F)(F)F)c(-c2cc(N3CCOCC3)nc(N3CCOCC3)n2)cn1 [Buparlisib],0.317,0.573,1.75,-0.927,–,–
CS(=O)(=O)CCNCc1ccc(-c2ccc3ncnc(Nc4ccc(OCc5cccc(F)c5)c(Cl)c4)c3c2)o1 [Lapatinib],1.7,1.13,1.16,1.67,–,–
COc1cc(Nc2c(C#N)cnc3cc(OCCCN4CCN(C)CC4)c(OC)cc23)c(Cl)cc1Cl [Bosutinib],3.03,5.88,1.25,9.42,–,–
CO[C@@H](C(=O)N1Cc2[nH]nc(NC(=O)c3ccc(N4CCN(C)CC4)cc3)c2C1)c1ccccc1 [Danusertib],1.74,1.68,2.36,0.59,–,–
Cc1c(CN2CCN(C(=O)[C@H](C)O)CC2)sc2c(N3CCOCC3)nc(-c3cnc(N)nc3)nc12 [Apitolisib],1.4,1.55,3.51,0.847,–,–
O=C(Nc1cccc(Nc2ncc(Br)c(NCCc3cnc[nH]3)n2)c1)N1CCCC1 [BX-912],9.95,15.9,8.25,4.05,–,–
Cc1ccc(F)c(NC(=O)Nc2ccc(-c3cccc4[nH]nc(N)c34)cc2)c1 [Linifanib],1.96,5.72,5.04,2.49,–,–
COc1cc(CCc2cc(NC(=O)c3ccc(N4C[C@@H](C)N[C@@H](C)C4)cc3)n[nH]2)cc(OC)c1 [AZD4547],3.26,5.45,6.5,-0.197,–,–
Cc1c(NC(=O)OC[C@@H]2COCCN2)cn2ncnc(Nc3ccc4c(cnn4Cc4cccc(F)c4)c3)c12 [BMS-599626],2.62,4.37,0.293,2.18,–,–
CN1CCN(c2nc(C3=C(c4c[nH]c5ccccc45)C(=O)NC3=O)c3ccccc3n2)CC1 [Sotrastaurin],1.63,3.16,1.8,0.62,–,–
O=C(Nc1ccc2[nH]nc(-c3ccncc3)c2c1)[C@@H]1CCN(CC(=O)N2CCN(c3ccc(-c4ncccn4)cc3)CC2)C1 [SCH772984],0.0767,0.9,0.0567,0.343,–,–
Cn1cnc2c(F)c(Nc3ccc(Br)cc3Cl)c(C(=O)NOCCO)cc21 [Selumetinib],0.343,0.227,0.797,-0.847,–,–
CN1CCC(CNc2ccc3ncc(-c4cccc(OC(F)(F)F)c4)n3n2)CC1 [SGI-1776],6.74,10.2,3.24,3.81,–,–
O=S(=O)(c1cccc2cnccc12)N1CCCNCC1 [Fasudil],3.27,7,0.903,-0.0367,–,–
O=C(O)c1ccc(-c2c[nH]c3ncc(-c4ccccc4)cc23)cc1C1CCCC1 [GSK650394],8.29,13,8.84,7.69,–,–
COc1ccc(-c2ccc3c(N4CCOC[C@@H]4C)nc(N4CCOC[C@@H]4C)nc3n2)cc1CO [AZD8055],0.04,0.12,0.947,-0.753,–,–

# Source: PMC4780864, “Family-wide Structural Analysis of Human Numb-Associated Protein Kinases” (Structure(London, England:1993), 2016)
